“And” between values parts separate entries of the source, which are not always exact repeats. Identical values can stand only once. Inconclusive results and toxic doses are left out. Rule for the calls: active = survival T/C of 150% or more; inactive = T/C below 125% in these data.
Tested on: P388 leukemia ip, CD2F1 mice, survival T/C
Assay: NCI In Vivo Anticancer Drug Screen. Data for tumor model P388 Leukemia (intraperitoneal) in CD2F1 (CDF1) mice
Details: endpoint: median survival time, higher = longer survival
Summary of the method: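 Mice carrying the transplanted tumor received test compound or vehicle. Survival was recorded in each group, and the value is the treated-group measurement divided by that of the vehicle-treated control group.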

[1] = dose: 60.0 mg/kg/injection, schedule: Q01DX005 (ip), vehicle: saline with Tween-80
[2] = dose: 120.0 mg/kg/injection, schedule: Q01DX005 (ip), vehicle: saline with Tween-80
[3] = dose: 240.0 mg/kg/injection, schedule: Q01DX005 (ip), vehicle: saline with Tween-80
[4] = dose: 50.0 mg/kg/injection, schedule: Q01DX009 (ip), vehicle: saline with Tween-80
[5] = dose: 50.0 mg/kg/injection, schedule: Q01DX005 (ip), vehicle: Klucel (hydroxypropylcellulose) (HPC)
[6] = dose: 100.0 mg/kg/injection, schedule: Q01DX005 (ip), vehicle: Klucel (hydroxypropylcellulose) (HPC)
[7] = dose: 60.0 mg/kg/injection, schedule: Q01DX005 (ip), vehicle: Klucel (hydroxypropylcellulose) (HPC)
[8] = dose: 120.0 mg/kg/injection, schedule: Q01DX005 (ip), vehicle: Klucel (hydroxypropylcellulose) (HPC)
[9] = dose: 60.0 mg/kg/injection, schedule: Q01DX005 (ip), vehicle: saline
[10] = dose: 120.0 mg/kg/injection, schedule: Q01DX005 (ip), vehicle: saline
[11] = dose: 100.0 mg/kg/injection, schedule: Q04DX003 (ip), vehicle: saline with Tween-80
[12] = dose: 200.0 mg/kg/injection, schedule: Q04DX003 (ip), vehicle: saline with Tween-80
[13] = dose: 400.0 mg/kg/injection, schedule: Q04DX003 (ip), vehicle: saline with Tween-80
[14] = dose: 100.0 mg/kg/injection, schedule: Q01DX009 (ip), vehicle: saline with Tween-80

Measured: T/C

CCCCCNC(=O)c1csc(-c2csc(CCNC(C)=O)n2)n1
inactive: dose: 12.5 mg/kg/injection, schedule: Q01DX009 (ip), vehicle: distilled water + Tween-80 100 % of control | dose: 25.0 mg/kg/injection, schedule: Q01DX009 (ip), vehicle: distilled water + Tween-80 103 % of control | dose: 50.0 mg/kg/injection, schedule: Q01DX009 (ip), vehicle: distilled water + Tween-80 92 % of control | dose: 100.0 mg/kg/injection, schedule: Q01DX009 (ip), vehicle: distilled water + Tween-80 91 % of control

CCC(=O)Cc1nc2n(c1O)/C(=N/C(=O)Nc1ccc(Cl)cc1)N=N2
inactive: [1] 100 % of control | [2] 98 % of control | [3] 98 % of control

C(/C=C/c1cc2cc(C3=NCCN3)ccc2o1)=C\c1ccc(C2=NCCN2)cc1
inactive: dose: 100.0 mg/kg/injection, schedule: Q04DX003 (ip), vehicle: saline 114 % of control | dose: 200.0 mg/kg/injection, schedule: Q04DX003 (ip), vehicle: saline 119 % of control | dose: 400.0 mg/kg/injection, schedule: Q04DX003 (ip), vehicle: saline 118 % of control

OCN(CO)c1nc(N(CO)CO)nc(N(CO)CO)n1
inactive: dose: 6.3 mg/kg/injection, schedule: Q01DX009 (ip), vehicle: saline with Tween-80 109 % of control | dose: 12.5 mg/kg/injection, schedule: Q01DX009 (ip), vehicle: saline with Tween-80 106 % of control | [4] 108 % of control

CNC(=S)N/N=C(C)/C=C/c1ccccc1
inactive: [5] 107 % of control | [6] 101 % of control | dose: 200.0 mg/kg/injection, schedule: Q01DX005 (ip), vehicle: Klucel (hydroxypropylcellulose) (HPC) 101 % of control

OCC(O)C[S][Bi]([c]1ccccc1)[c]1ccccc1 (stereo not drawn)
inactive: [7] 116 % of control | [8] 100 % of control

Cc1cc(CN2CCN(CCO)CC2)c(O)c(CN2CCN(CCO)CC2)c1
inactive: [9] 105 % of control | [10] 102 % of control

C/C=C/C[P+](C)(c1ccccc1)c1ccccc1
inactive: dose: 0.75 mg/kg/injection, schedule: Q01DX009 (ip), vehicle: saline 104 % of control

COc1ccc(CS(=O)(=O)c2cnc(N3CCN(C)CC3)nc2N)cc1OC
inactive: dose: 100.0 mg/kg/injection, schedule: Q01DX001 (ip), vehicle: saline 101 % of control | dose: 200.0 mg/kg/injection, schedule: Q01DX001 (ip), vehicle: saline 98 % of control | dose: 400.0 mg/kg/injection, schedule: Q01DX001 (ip), vehicle: saline 98 % of control

CCN(CC)Cc1c(O)ccc(C(C)=O)c1O
inactive: dose: 50.0 mg/kg/injection, schedule: Q01DX005 (ip), vehicle: saline 89 % of control | dose: 100.0 mg/kg/injection, schedule: Q01DX005 (ip), vehicle: saline 100 % of control

C1CNC(SCC2CC3CC2C2OC32)=N1 (stereo not drawn)
inactive: [5] 98 % of control | [6] 101 % of control

O=C(c1ccc2c(c1)OCO2)S(=O)(=O)O
inactive: [9] 102 % of control | [10] 96 % of control | dose: 240.0 mg/kg/injection, schedule: Q01DX005 (ip), vehicle: saline 97 % of control

CCOC(=O)CCCC(NC(=O)c1ccc(N2CCN(c3c(N)nc(N)nc3NC)CC2)cc1)C(=O)OCC (stereo not drawn)
inactive: [7] 91 % of control | [8] 87 % of control | dose: 240.0 mg/kg/injection, schedule: Q01DX005 (ip), vehicle: Klucel (hydroxypropylcellulose) (HPC) 96 % of control

CNC(=O)Oc1cccc2c(OC3OC(CO)C(O)C(O)C3O)cccc12 (stereo not drawn)
inactive: dose: 100.0 mg/kg/injection, schedule: Q04DX003 (ip), vehicle: Klucel (hydroxypropylcellulose) (HPC) 97 % of control | dose: 200.0 mg/kg/injection, schedule: Q04DX003 (ip), vehicle: Klucel (hydroxypropylcellulose) (HPC) 106 % of control | dose: 400.0 mg/kg/injection, schedule: Q04DX003 (ip), vehicle: Klucel (hydroxypropylcellulose) (HPC) 101 % of control

c1ccc2[nH]cnc2c1
inactive: dose: 20.0 mg/kg/injection, schedule: Q04DX003 (ip), vehicle: other 100 % of control | dose: 40.0 mg/kg/injection, schedule: Q04DX003 (ip), vehicle: other 99 % of control | dose: 40.0 mg/kg/injection, schedule: Q04DX003 (oral), vehicle: other 100 % of control | dose: 50.0 mg/kg/injection, schedule: Q01DX009 (ip), vehicle: suspension in saline 98 % of control | dose: 80.0 mg/kg/injection, schedule: Q04DX003 (ip), vehicle: other 95 % of control | dose: 100.0 mg/kg/injection, schedule: Q01DX009 (ip), vehicle: suspension in saline 90 % of control | [11] 100 % of control | dose: 160.0 mg/kg/injection, schedule: Q04DX003 (ip), vehicle: other 100 % of control | dose: 160.0 mg/kg/injection, schedule: Q04DX003 (oral), vehicle: other 104 % of control | dose: 200.0 mg/kg/injection, schedule: Q01DX009 (ip), vehicle: suspension in saline 106 % of control | [12] 100 % of control | dose: 320.0 mg/kg/injection, schedule: Q04DX003 (ip), vehicle: other 100 % of control | [13] 90 % of control

Nc1nc(N)c2c(n1)=NC(c1cccc3ccccc13)N=2 (stereo not drawn)
inactive: dose: 25.0 mg/kg/injection, schedule: Q01DX009 (ip), vehicle: other 101 % of control | dose: 50.0 mg/kg/injection, schedule: Q01DX009 (ip), vehicle: other 106 % of control | dose: 100.0 mg/kg/injection, schedule: Q01DX009 (ip), vehicle: other 102 % of control | dose: 200.0 mg/kg/injection, schedule: Q01DX009 (ip), vehicle: other 99 % of control | dose: 400.0 mg/kg/injection, schedule: Q01DX009 (ip), vehicle: other 106 % of control

CCCCCCC1([N+](=O)[O-])CN(C)CC2CCCCN2C1 (stereo not drawn)
inactive: dose: 100.0 mg/kg/injection, schedule: Q04DX002 (ip), vehicle: saline 109 % of control | dose: 200.0 mg/kg/injection, schedule: Q04DX002 (ip), vehicle: saline 97 % of control

CC1SC(c2ccc(Cl)cc2)N2C(=O)C(C)SC(c3ccc(Cl)cc3)N2C1=O (stereo not drawn)
inactive: [4] 87 % of control | [14] 86 % of control

CCCC/C=C\CCCCCCCCCC1=C(O)C(=O)C=C(OC)C1=O
inactive: dose: 25.5 mg/kg/injection, schedule: Q01DX005 (ip), vehicle: Klucel (hydroxypropylcellulose) (HPC) 116 % of control

COC(=O)/C(=C/c1ccccc1)N=[N+]=[N-]
inactive: [1] 107 % of control | [2] 110 % of control | [3] 117 % of control

C[n+]1ccc(C#N)c2ccccc21
inactive: dose: 3.75 mg/kg/injection, schedule: Q01DX009 (ip), vehicle: saline with Tween-80 95 % of control | dose: 7.5 mg/kg/injection, schedule: Q01DX009 (ip), vehicle: saline with Tween-80 109 % of control | dose: 15.0 mg/kg/injection, schedule: Q01DX009 (ip), vehicle: saline with Tween-80 118 % of control

N#CCS(=O)(=O)c1cccc[n+]1[O-]
inactive: dose: 50.0 mg/kg/injection, schedule: Q01DX005 (ip), vehicle: saline with Tween-80 107 % of control and 115 % of control | dose: 100.0 mg/kg/injection, schedule: Q01DX005 (ip), vehicle: saline with Tween-80 118 % of control and 122 % of control | dose: 200.0 mg/kg/injection, schedule: Q01DX005 (ip), vehicle: saline with Tween-80 123 % of control

O=C1C(N=Nc2ccccc2Cl)C(O)N(c2ccccc2)C(=S)N1c1cccc(Cl)c1Cl (stereo not drawn)
inactive: dose: 100.0 mg/kg/injection, schedule: Q01DX001 (ip), vehicle: Klucel (hydroxypropylcellulose) (HPC) 98 % of control | dose: 200.0 mg/kg/injection, schedule: Q01DX001 (ip), vehicle: Klucel (hydroxypropylcellulose) (HPC) 103 % of control | dose: 400.0 mg/kg/injection, schedule: Q01DX001 (ip), vehicle: Klucel (hydroxypropylcellulose) (HPC) 97 % of control

CCC(=O)OC1CCC2C3CCC4=CC(=O)CCC4(C)C3CCC12C (stereo not drawn)
inactive: [14] 95 % of control | [11] 95 % of control | dose: 200.0 mg/kg/injection, schedule: Q01DX009 (ip), vehicle: saline with Tween-80 104 % of control | [12] 100 % of control | dose: 400.0 mg/kg/injection, schedule: Q01DX009 (ip), vehicle: saline with Tween-80 95 % of control | [13] 100 % of control
